Test results reported in ChEMBL document CHEMBL2073836, “Interactions of nonsteroidal anti-inflammatory drugs with rat renal organic anion transporter, OAT-K1” (J Pharmacol Exp Ther, 1997).

Tests used:
Type in all cases: functional, cell-based
[1] = target: T1, Solute carrier organic anion transporter family member 1A3 (Rattus norvegicus, UniProt P70502); experiment: TP_TRANSPORTER: inhibition of MTX uptake (MTX: 0.1 uM, Flufenamate: 1000 uM) in OAT-K1-expressing LLC-PK1 cells; conditions: pig, llc-pk1, 1000 µM
T1 sequence (P70502 whole entry): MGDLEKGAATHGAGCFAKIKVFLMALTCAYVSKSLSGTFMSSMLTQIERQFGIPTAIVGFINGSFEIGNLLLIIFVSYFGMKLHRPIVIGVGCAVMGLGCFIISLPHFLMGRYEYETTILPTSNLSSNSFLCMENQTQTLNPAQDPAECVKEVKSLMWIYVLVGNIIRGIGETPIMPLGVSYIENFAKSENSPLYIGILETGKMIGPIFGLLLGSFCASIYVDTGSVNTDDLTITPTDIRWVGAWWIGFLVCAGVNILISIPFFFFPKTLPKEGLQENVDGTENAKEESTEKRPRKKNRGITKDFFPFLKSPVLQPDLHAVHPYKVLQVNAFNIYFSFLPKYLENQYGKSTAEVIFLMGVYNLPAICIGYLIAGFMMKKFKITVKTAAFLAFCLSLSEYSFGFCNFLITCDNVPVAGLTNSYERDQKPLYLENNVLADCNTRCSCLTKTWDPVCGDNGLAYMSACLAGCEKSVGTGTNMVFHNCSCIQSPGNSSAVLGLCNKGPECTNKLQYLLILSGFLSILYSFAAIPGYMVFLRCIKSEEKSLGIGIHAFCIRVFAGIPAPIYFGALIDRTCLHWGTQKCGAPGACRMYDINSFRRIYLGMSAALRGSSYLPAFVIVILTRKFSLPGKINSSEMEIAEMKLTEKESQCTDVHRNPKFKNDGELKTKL

[2] = target: T1, Solute carrier organic anion transporter family member 1A3; experiment: TP_TRANSPORTER: inhibition of MTX uptake (MTX: 0.1 uM, Ibuprofen: 1000 uM) in OAT-K1-expressing LLC-PK1 cells; conditions: pig, llc-pk1, 1000 µM
[3] = target: T1, Solute carrier organic anion transporter family member 1A3; experiment: TP_TRANSPORTER: inhibition of MTX uptake in OAT-K1-expressing LLC-PK1 cells
[4] = target: T1, Solute carrier organic anion transporter family member 1A3; experiment: TP_TRANSPORTER: inhibition of MTX uptake (MTX: 0.1 uM, Phenylbutazone: 1000 uM) in OAT-K1-expressing LLC-PK1 cells; conditions: pig, llc-pk1, 1000 µM

Question: How did the Activity [1] turn out when O=C(O)c1ccccc1Nc1cccc(C(F)(F)F)c1 [FLUFENAMIC ACID] was run?
Answer: inhibitor [(at a rough estimate) 55 % of control]

Question: With CC(C)Cc1ccc(C(C)C(=O)O)cc1 (stereo not given) [IBUPROFEN] as the compound, how does the Activity [2] read?
Answer: inhibitor [(at a rough estimate) 65 % of control]

Question: With COc1ccc2c(c1)c(CC(=O)O)c(C)n2C(=O)c1ccc(Cl)cc1 [INDOMETHACIN] as the compound, how does the Ki [3] read?
Answer: 1000 µM

Question: With CC(C(=O)O)c1cccc(C(=O)c2ccccc2)c1 (stereo not given) [KETOPROFEN] as the compound, how does the Ki [3] read?
Answer: 1900 µM

Question: Which Activity [4] does the source give for CCCCC1C(=O)N(c2ccccc2)N(c2ccccc2)C1=O [PHENYLBUTAZONE] here?
Answer: inhibitor [(at a rough estimate) 70 % of control]
